Experimental data reported in patent US8609607B2, “Modified defensins and their use” (The United States of America as represented by the …, priority 2002, dated 2013).

What was measured:
A549 cells [1] = test: chromium release assay, effect of ADP-ribosylated HNP-1 on HNP-1 cytotoxic activity; assay type: cell-based; conditions: HNP-1 12 μM incubated 1 hour at 37° C. with 0-12 μM ADP-ribosyl-HNP-1; FIG. 3B
Description: (§1) Chromium (^51Cr)-labeled A549 cells (American Type Culture Collection) were incubated (18 hours, 37° C.) in 100 μl of serum-free RPMI (Gibco Fluids Inc., Rockville, Md.) containing various concentrations of HNP-1, synthetic HNP-1, or ADP-ribosyl-HNP-1 (1.5 μM, 3 μM, 6 μM, 12 μM, 24 μM) to quantify defensin cytotoxicity. Cytotoxicity was positively correlated with the amount of chromium released from lysed cells (Panyutich et al., Am. J. Respir. Cell. Mol. Biol. 12:351-357, 1995). Percent of lysis was calculated as (cpmexp−cpmspont)/(cpmmax−cpmspont)×100 (exp, experimental conditions; max, maximal release; spont, spontaneous release).
HNP-1 (12 μM) was incubated with various concentrations of ADP-ribosyl-HNP-1 (0-12 μM) for 1 hour at 37° C. before the initiation of the chromium release assay. The chromium release assay was performed as described in Example 5. HNP-1 and ADP-ribosyl-HNP-1 (0-12 μM) were included as controls.

A549 cells [2] = test: IL-8 production by A549 cells (indirect ELISA); assay type: cell-based; conditions: 12 or 24 hours
Description: A549 cells (3×10^4 cells per well) were incubated in a 96-well plate in 200 μl of serum-free RPMI medium (Gibco Fluids Inc) containing ADP-ribosyl-HNP-1 or HNP-1 (0.25, 0.75, 1.5, 3 μM). Culture medium was sampled after 12 or 24 hours of incubation and IL-8 content in the medium was assayed by indirect ELISA (FIGS. 4A and 4B) according to the manufacturer's instructions (R & D System Inc. Minneapolis, Minn.).

CD3+ T-cells = test: T cell chemotaxis assay; assay type: cell-based, human; conditions: 0.025 to 25 nM, 4 hours; compared to unmodified HNP; FIG. 4C
Description: CD3^+ T-cells were isolated from human peripheral blood prepared by leukapheresis (NIH, Department of Transfusion Medicine, Bethesda, Md.) (Chertov et al, J. Biol. Chem. 271:2935-2940, 1996) and suspended in migration medium (RPMI 1640, 0.5% bovine serum albumin, 25 mM HEPES). Inserts coated with collagen IV (Becton Dickinson Labware, Bedford, Mass.) were placed into 24-well culture plates to form upper and a lower chambers in each well. Upper chambers were wetted with migration medium, then 500 μl of migration medium with or without ADP-ribosyl-HNP-1 or HNP-1 (0.025 to 25 nM) were added to the lower chamber. Cells were added to the upper chamber and plates were incubated at 37° C. in 5% CO2 for 4 hours. Cells incubated in the presence or absence of (macrophage inflammatory protein-1β) MIP-1β (5 ng/ml) were the positive and negative controls, respectively. Lymphocytes that had migrated to the lower chamber were harvested by centrifugation and counted in a hematocytometer. Chemotaxis percentage was calculated as follows: (number of cells migrated to the lower chamber in the experimental conditions−number of cells migrated in the negative control)/(number of cells migrated in the positive control−number of cells migrated in negative control)×100.

A549 cells [3] = test: chromium release assay, defensin cytotoxicity; assay type: cell-based; conditions: compared to unmodified HNP-1; 1.5-24 μM, 18 hours, 37° C.; FIG. 2B
Description: as §1

E. coli = test: radial diffusion assay, effect of ADP-ribosylated HNP-1 on HNP-1 activity; assay type: cell-based; conditions: HNP-1 100 nM incubated 1 hour at 37° C. with 0-800 nM ADP-ribosylated HNP-1; FIG. 3A
Description: (§2) The antibacterial activity of various concentrations of HNP-1 and ADP-ribosyl-HNP-1 (16 nM, 32 nM, 64 nM, 128 nM, 256 nM) on Escherichia coli ATCC43827 (American Type Culture Collection, Rockville, Md.) was evaluated by the radial diffusion assay (Takemura et al., Antimicrob. Agents Chemother. 40: 2280-2284, 1996). Antimicrobial activity was positively correlated with the diameter of a zone cleared of E. coli growth (minus the diameter of the central well (3 mm)).
HNP-1 (100 nM) was incubated for 1 hour at 37° C. with various concentrations of ADP-ribosylated HNP-1 (0-800 nM) before the initiation of the E. coli radial diffusion assay. The radial diffusion assay was performed as described in Example 4.

[4] = system: Escherichia coli ATCC43827; test: radial diffusion assay, antibacterial activity; assay type: cell-based; conditions: compared to unmodified HNP-1; 16-256 nM; FIG. 2A
Description: as §2

## ADP-ribosylated HNP-1: HNP-1 (SEQ ID NO:2) mono-ADP-ribosylated by ART-1 with NAD, at arginine 14
A549 cells [1]
  effect on cytotoxic activity of HNP-1, chromium release assay: blocked the cytotoxic activity of HNP-1 in a concentration-dependent manner
A549 cells [2]; 0.75 μM peptide, P=0.01
  IL-8 release into the medium versus unmodified peptide: significantly higher
A549 cells [2]; 1.5 μM peptide, P=0.01
  IL-8 release into the medium versus unmodified peptide: significantly higher
A549 cells [2]; 3 μM peptide
  IL-8 release into the medium versus unmodified peptide: no differences
CD3+ T-cells
  ability to recruit T cells (chemotaxis): retained the ability to recruit T cells at a level that was comparable to unmodified HNP
A549 cells [3]
  cytotoxicity (lysis of 51Cr-labeled A549 cells): less cytotoxic than unmodified HNP-1
E. coli
  effect on antimicrobial/cytotoxic activity of HNP-1, radial diffusion assay: blocked the cytotoxic activity of HNP-1 in a concentration-dependent manner
[4]
  antibacterial activity (diameter of zone cleared of E. coli growth): reduced antibacterial activity
